Legend:
Assay in all cases: relative viability (nuclei count vs DMSO), 5 days (fraction); higher = more cells survive
Idelalisib + Lapatinib = compound: CC[C@H](Nc1ncnc2[nH]cnc12)c1nc2cccc(F)c2c(=O)n1-c1ccccc1 [Idelalisib] + CS(=O)(=O)CCNCc1ccc(-c2ccc3ncnc(Nc4ccc(OCc5cccc(F)c5)c(Cl)c4)c3c2)o1 [Lapatinib] (partner 2 µM)
How it was run: (§1)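 After 5 days of treatment, lung cancer cells in 1536-well plates were fixed and stained in a single step (final 0.05% Triton X-100, 1% formaldehyde, 1 ug/ml Hoechst) and their nuclei counted on 4× images. Treatment had been applied by pin tool the day after seeding as one drug alone or as a fixed anchor-drug dose with five library-drug doses (not always all listed) in √10 steps. Relative viability is the nuclei count of treated wells divided by that of vehicle wells, and values are medians of duplicate plates.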

Idelalisib + Crizotinib = compound: CC[C@H](Nc1ncnc2[nH]cnc12)c1nc2cccc(F)c2c(=O)n1-c1ccccc1 [Idelalisib] + C[C@@H](Oc1cc(-c2cnn(C3CCNCC3)c2)cnc1N)c1c(Cl)ccc(F)c1Cl [Crizotinib] (partner 1 µM)
How it was run: as §1

Pemetrexed + Foretinib = compound: Nc1nc2[nH]cc(CCc3ccc(C(=O)N[C@@H](CCC(=O)O)C(=O)O)cc3)c2c(=O)[nH]1 [Pemetrexed] + COc1cc2c(Oc3ccc(NC(=O)C4(C(=O)Nc5ccc(F)cc5)CC4)cc3F)ccnc2cc1OCCCN1CCOCC1 [Foretinib] (partner 0.25 µM)
How it was run: as §1

Pemetrexed + Decitabine = compound: Nc1nc2[nH]cc(CCc3ccc(C(=O)N[C@@H](CCC(=O)O)C(=O)O)cc3)c2c(=O)[nH]1 [Pemetrexed] + Nc1ncn([C@H]2C[C@H](O)[C@@H](CO)O2)c(=O)n1 [Decitabine] (partner 2 µM)
How it was run: as §1

Cell Line	relative viability (Idelalisib + Lapatinib; first compound 0.04 µM)	relative viability (Idelalisib + Lapatinib; first compound 0.1265 µM)	relative viability (Idelalisib + Lapatinib; first compound 0.4 µM)	relative viability (Idelalisib + Lapatinib; first compound 1.265 µM)	relative viability (Idelalisib + Lapatinib; first compound 4 µM)	relative viability (Idelalisib + Crizotinib; first compound 0.04 µM)	relative viability (Idelalisib + Crizotinib; first compound 0.1265 µM)	relative viability (Idelalisib + Crizotinib; first compound 0.4 µM)	relative viability (Idelalisib + Crizotinib; first compound 1.265 µM)	relative viability (Idelalisib + Crizotinib; first compound 4 µM)	relative viability (Pemetrexed + Foretinib; first compound 0.002 µM)	relative viability (Pemetrexed + Foretinib; first compound 0.006325 µM)	relative viability (Pemetrexed + Foretinib; first compound 0.02 µM)	relative viability (Pemetrexed + Foretinib; first compound 0.06325 µM)	relative viability (Pemetrexed + Foretinib; first compound 0.2 µM)	relative viability (Pemetrexed + Decitabine; first compound 0.002 µM)	relative viability (Pemetrexed + Decitabine; first compound 0.006325 µM)	relative viability (Pemetrexed + Decitabine; first compound 0.02 µM)	relative viability (Pemetrexed + Decitabine; first compound 0.06325 µM)	relative viability (Pemetrexed + Decitabine; first compound 0.2 µM)
NCI-H1734	0.93	1.03	0.989	0.958	0.98	0.789	0.639	0.604	0.685	0.527	0.871	0.77	0.976	0.794	0.532	0.485	0.472	0.52	0.517	0.427
NCI-H1623											0.794	0.831	0.861	0.848	0.769					
NCI-H2126	0.808	0.785	0.634	0.764	0.728	1.04	1	0.967	1.03	1.02	1.02	1.19	1.29	0.565	1.03	0.55	0.588	0.569	0.608	0.567
NCI-H1792	0.465	0.942	0.903	0.878	0.918	0.612	0.987	0.804	0.979	1.01						0.506	0.532	0.527	0.507	0.56
NCI-H522																0.624	0.692	0.721	0.691	0.73
NCI-H1703	1.53	1.03	0.961	1.29	0.618	0.857	0.56	0.631	0.754	0.315	0.304	0.283	0.415	0.345	0.369					
IA-LM	0.641	0.733	0.958	1.24	0.816	0.745	0.849	0.944	1.19	0.818	1.05	1.1	1.05	1.14	0.829					
SW 900											0.908	0.77	0.874	0.688	0.588	0.342	0.433	0.553	0.377	0.424
NCI-H1648																0.407	0.431	0.655	0.508	0.394
NCI-H1563	1.01	1.05	0.833	1	0.83	0.774	0.87	0.793	0.828	0.728	0.822	0.87	1.01	0.909	0.919					
LCLC-103H						1.03	0.986	0.957	1.09	0.839	0.719	0.666	0.833	0.725	0.802	0.722	0.723	0.743	0.699	0.76
NCI-H2342											0.997	1.08	0.94	1.05	0.915	0.675	0.701	0.767	0.716	0.835
ChaGo-K-1						1.38	1.13	1.1	1.15	1.17	0.991	0.919	0.948	0.529	0.301	0.538	0.531	0.552	0.531	0.368
NCI-H441						1.15	0.702		0.68	0.654	1.02	0.926	1.08	0.741	0.438	0.2	0.308	0.244	0.232	0.215
Calu-6	1.04	1.06	1.05	1.02	1.06	0.866	0.822	0.759	0.832	0.774	0.821	0.877	0.95	0.888	0.845					
NCI-H1395	1.01	0.948	0.993	0.933	0.758						0.912	0.965	1.05	0.962	0.937	0.681	0.71	0.85	0.697	0.74
NCI-H1793	0.664	0.635	0.406	0.583	0.651						0.844	0.575	0.733	0.465	0.749	0.512	0.449	0.583	0.512	0.528
NCI-H1299	0.927	0.977	0.943	1.09	1.02	0.99	0.969	0.919	1.08	1.01	1.08	1.15	1.12	1.09	0.595					
NCI-H2228	1.21	1.14	0.875	1.23	1.03	0.476	0.389	0.354	0.413	0.355	0.71		0.993	0.633	0.302					
EBC-1	0.225	0.198	0.233	0.239	0.222	0.202	0.185	0.172	0.204	0.202	0.117	0.112	0.107	0.0993	0.0915					

Source: the supplement of paper PMC10307832
